Like-named read-outs stand apart in the source and are kept apart here.
Columns and labels:
[1] = tested on: NCI-H929 cells; experiment: Cell viability assay (NCI-H929 cells), CCK-8; format: cell-based; conditions: WST, 5% FBS
Description: Cell Viability Assay (NCI-H929 Cells)
NCI-H929 cells were obtained from American Type Culture Collection (ATCC). Cells were maintained in the recommended culture medium (RPMI 1640) with 10% FBS and 0.05 mM BME at 37° C. and an atmosphere of 5% CO2.
The effect of Compounds on cell viability was determined using Cell Counting Kit-8 (CCK-8) assay according to the manufacturer's instructions. 95 μL of NCI-H929 cell suspension (20000 cells/well) in culture medium were seeded into 96-well plates and cultured 4 hrs. Each tested compound was serially diluted in DMSO, then 5 μL of the compound or DMSO was diluted in 95 μL medium once more. At last, 5 μL of the compound dilution was added to the corresponding well of the cell plate. After the addition of the tested compound, the cells were incubated at 37° C. in an atmosphere of 5% CO2 for 24 hrs. At the end, 10 μL of CCK-8 solution was added to each well of the plate and incubated for 1-4 hours. The plates were read at 450 nm on the microplate reader (BioTek Synergy 1MF). The readings were normalized to the vehicle cells, and the IC50 was calculated by nonlinear regression analysis using GraphPad Prism 6 software.

[2] = tested on: OPM-2 cells; experiment: Cell viability assay (OPM-2 cells), CCK-8; format: cell-based; conditions: WST, 5% FBS, read-out: OPM2 (WST, 5% FBS)
Description: Cell Viability Assay (OPM-2 Cells)
OPM-2 cells were obtained from Deutsche Sammlung von Mikroorganismen und Zellkulturen GmbH (DSMZ). […]
The effect of representative Compounds of the Disclosure on cell viability was determined using Cell Counting Kit-8 (CCK-8) assay (Shanghai Life iLab Bio Technology) according to the manufacturer's instructions. Each tested compound was serially diluted in culture medium, 100 μL of the compound dilution was added into 96-well plates. 100 μL of an OPM-2 cell suspension (20000 cells/well) in culture medium were seeded into the corresponding well of the plate and the cells were incubated at 37° C. in an atmosphere of 5% CO2 for 24 hours. In the next day, 20 μL of CCK-8 solution was added to each well of the plate and incubated for 4 hours.
The plates were read at 450 nm on the microplate spectrophotometer (SpectraMax plus 384, Molecular devices). The readings were normalized to the vehicle cells, and the IC50 was calculated by nonlinear regression analysis using GraphPad Prism 6 software.

[3] = target: T1, Mcl-1 protein (residues 171-323) (Homo sapiens, UniProt Q07820); experiment: Inhibition of Mcl-1 by fluorescence polarization (FP) competitive binding assay; conditions: FAM-Bid tracer 2 nM, Mcl-1 20 nM, 30 min
T1 construct: Tag-free Mcl-1 protein (residues 171-323) was used in the FP assay
Description: Inhibition of Mcl-1 by Fluorescence Polarization (FP) Assay.
The method used a fluorescein labelled peptide (FAM-Bid) which binds to the Mcl-1 protein leading to an increased anisotropy measured in milli-polarization (mP) values using a plate reader.
A 10-points serial dilution of each compound was prepared in DMSO and 5 μL solution was transferred into flat bottomed, 96-well back plate (final DMSO concentration 5%). 120 μL of Buffer (PBS, 0.01% BGG (Sigma Cat. #SRE0011), 0.01% Triton X-100), containing the Fluorescein labelled peptide (Final concentration 2 nM) and Mcl-1 protein (final concentration 20 nM) was then added. […] 10-points dose response curves were plotted with GraphPad software using Sigmoidal Dose-Response Model and the IC50 values were determined by nonlinear regression fitting of the competition curves.

T1 sequence (Q07820 171-323): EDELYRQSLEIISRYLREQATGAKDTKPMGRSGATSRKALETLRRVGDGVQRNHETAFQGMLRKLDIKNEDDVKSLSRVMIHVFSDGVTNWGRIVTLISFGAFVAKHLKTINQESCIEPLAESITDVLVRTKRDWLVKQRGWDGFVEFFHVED

Q: Which IC50 ([1]; 24 h) does the source give for `Cn1nc2cc1CSc1cc(c3ccccc3c1)OCCCc1c(C(=O)O)n(C)c3c(c(Cl)ccc13)-c1c(nn3c1CCC3)CSC2` (atropisomer, axis not shown) [Cpd. No. 52, (R)-(Z)-1^6-chloro-1^1,6^1-dimethyl-2^5,2^6-dihydro-1^1H,2^4H,6^1H-10-oxa-4,8-dithia-1(7,3)-indola-2(3,2)-pyrrolo[1,2-b]pyrazola-6(3,5)-pyrazola-9(3,1)-naphthalenacyclotridecaphane-1^2-carboxylic acid] here?
A: 63 nM

Q: What about the IC50 ([2]; 24 h) of the same molecule?
A: 353 nM

Q: What does the source list for `Cn1nc2cc1CSc1cc(c3ccccc3c1)OCCCc1c(C(=O)O)n(C)c3c(c(Cl)ccc13)-c1c(nn3c1CCC3)CSC2` (atropisomer, axis not shown) [Cpd. No. 53, (S)-(Z)-1^6-chloro-1^1,6^1-dimethyl-2^5,2^6-dihydro-1^1H,2^4H,6^1H-10-oxa-4,8-dithia-1(7,3)-indola-2(3,2)-pyrrolo[1,2-b]pyrazola-6(3,5)-pyrazola-9(3,1)-naphthalenacyclotridecaphane-1^2-carboxylic acid]?
A: IC50 ([1]; 24 h): 4400 nM; IC50 ([2]; 24 h): 5720 nM

Q: How did the IC50 [3] turn out when `Cn1nc2cc1CSc1cc(cc(C(F)(F)F)c1)OCCCc1c(C(=O)O)n(C)c3c(c(Cl)ccc13)-c1c(nn3c1COCC3)CSC2` [Cpd. No. 33, (Z)-1^6-chloro-1^1,6^1-dimethyl-9^5-(trifluoromethyl)-2^6,2^7-dihydro-11H,2^4H,6^1H-10-oxa-4,8-dithia-2(3,2)-pyrazolo[5,1-c][1,4]oxazina-1(7,3)-indola-6(3,5)-pyrazola-9(1,3)-benzenacyclotridecaphane-1^2-carboxylic acid] was run?
A: 12 nM

Q: And the IC50 ([1]; Homo sapiens, NCI-H929, 24 h)?
A: 361 nM

Q: What about the IC50 ([2]; Homo sapiens, OPM-2, 24 h) of the same molecule?
A: 965 nM

Q: What does the source list for `Cc1c(Cl)cc2cc1SCc1cc(nn1C)CSCc1nn3c(c1-c1c(Cl)ccc4c(c(C(=O)O)n(C)c14)CCCO2)CCCC3` [Cpd. No. 37, (Z)-1^6,9^5-dichloro-1^1,6^1,9^6-trimethyl-2^4,2^5,2^6 2^7-tetrahydro-1^1H,6^1-10-oxa-4,8-dithia-2(3,2)-pyrazolo[1,5-a]pyridina-1(7,3)-indola-6(3,5)-pyrazola-9(1,3)-benzenacyclotridecaphane-1^2-carboxylic acid]?
A: IC50 [3]: 38 nM; IC50 ([1]; Homo sapiens, NCI-H929, 24 h): 535 nM; IC50 ([2]; Homo sapiens, OPM-2, 24 h): 1050 nM

Q: How did the IC50 [3] turn out when `Cn1nc2cc1CSc1cc(c3ccccc3c1)OCCCc1c(C(=O)O)n(C)c3c(c(Cl)ccc13)-c1c(nn3c1CCC3)CSC2` [compound 1, (Z)-1^6-chloro-1^1,6^1-dimethyl-2^5,2^6-dihydro-1^1H,2^4H,6^1H-10-oxa-4,8-dithia-1(7,3)-indola-2(3,2)-pyrrolo[1,2-b]pyrazola-6(3,5)-pyrazola-9(3,1)-naphthalenacyclotridecaphane-1^2-carboxylic acid] was run?
A: 15 nM

Q: What about the IC50 ([1]; 24 h) of the same molecule?
A: 123 nM

Q: And the IC50 ([2]; 24 h)?
A: 437 nM

Q: What does the source list for `Cn1c(C(=O)O)c2c3ccc(Cl)c(c31)-c1c(nn3c1CCC3)CSCc1coc(n1)CSc1cc(c3ccccc3c1)OCCC2` [compound 2, (Z)-1^6-chloro-1^1-methyl-2^5,2^6-dihydro-1^1H,2^4H-10-oxa-4,8-dithia-6(4,2)-oxazola-1(7,3)-indola-2(3,2)-pyrrolo[1,2-b]pyrazola-9(3,1)-naphthalenacyclotridecaphane-1^2-carboxylic acid]?
A: IC50 [3]: 14 nM; IC50 ([1]; Homo sapiens, NCI-H929, 24 h): 287 nM; IC50 ([2]; Homo sapiens, OPM-2, 24 h): 1140 nM

Q: Which results are given for `Cn1c(C(=O)O)c2c3ccc(Cl)c(c31)-c1c(nn3c1CCC3)CSCc1csc(n1)CSc1cc(c3ccccc3c1)OCCC2` [compound 3, (Z)-1^6-chloro-1^1-methyl-2^5,2^6-dihydro-1^1H,2^4H-10-oxa-4,8-dithia-6(4,2)-thiazola-1(7,3)-indola-2(3,2)-pyrrolo[l,2-b]pyrazola-9(3,1)-naphthalenacyclotridecaphane-1^2-carboxylic acid]?
A: IC50 [3]: 8.7 nM; IC50 ([1]; Homo sapiens, NCI-H929, 24 h): 5110 nM; IC50 ([2]; Homo sapiens, OPM-2, 24 h): 6580 nM

Q: How did the IC50 [3] turn out when `Cn1c(C(=O)O)c2c3ccc(Cl)c(c31)-c1c(nn3c1CCC3)CSCC1=NC=C(CSc3cc(c4ccccc4c3)OCCC2)S1` [compound 4, 1^6-chloro-1^1methyl-2^5,2^6-dihydro-1^1H,2^4H-10-oxa-4,8-dithia-6(2,5)-thiazola-1(7,3)-indola-2(3,2)-pyrrolo[1,2-b]pyrazola-9(3,1)-naphthalenacyclotridecaphane-1^2-carboxylic acid] was run?
A: 19.1 nM

Q: And the IC50 ([2]; Homo sapiens, OPM-2, 24 h)?
A: 5300 nM

Q: How did the IC50 [3] turn out when `Cn1nc2cc1CSc1cc(c3ccccc3c1)OCCCc1c(C(=O)O)n(C)c3c(c(Cl)ccc13)-c1c(nn3c1OCC3)CSC2` [compound 6, (Z)-1^6-chloro-1^1,6^1-dimethyl-2^2,2^3-dihydro-1^1H,6^1H-10-oxa-4,8-dithia-2(7,6)-pyrazolo[5,1-b]oxazola-1(7,3)-indola-6(3,5)-pyrazola-9(3,1)-naphthalenacyclotridecaphane-1^2-carboxylic acid] was run?
A: 15 nM

Q: And the IC50 ([1]; Homo sapiens, NCI-H929, 24 h)?
A: 234 nM

Q: What about the IC50 ([2]; Homo sapiens, OPM-2, 24 h) of the same molecule?
A: 1350 nM

Q: With `Cn1c(C(=O)O)c2c3ccc(Cl)c(c31)-c1c(nn3c1CCC3)CSCc1cc(on1)CSc1cc(c3ccccc3c1)OCCC2` [compound 8, (Z)-1^6-chloro-1^1-methyl-2^5,2^6-dihydro-1^1H,2^4H-10-oxa-4,8-dithia-6(3,5)-isoxazola-1(7,3)-indola-2(3,2)-pyrrolo[1,2-b]pyrazola-9(3,1)-naphthalenacyclotridecaphane-1^2-carboxylic acid] as the molecule, how does the IC50 [3] read?
A: 10.2 nM

Q: And the IC50 ([1]; Homo sapiens, NCI-H929, 24 h)?
A: 2940 nM

Q: What about the IC50 ([2]; Homo sapiens, OPM-2, 24 h) of the same molecule?
A: > 10000 nM

Q: What does the source list for `Cn1nc2cc1CSc1cc(c3ccccc3c1)OCCCc1c(C(=O)O)n(C)c3c(c(Cl)ccc13)-c1c(nn3c1CCC3)CS(=O)(=O)C2` [compound 9, (Z)-1^6-chloro-1^1,6^1-dimethyl-2^5,2^6-dihydro-1‘H,2^4H,6^1H-10-oxa-4,8-dithia-1(7,3)-indola-2(3,2)-pyrrolo[1,2-b]pyrazola-6(3,5)-pyrazola-9(3,1)-naphthalenacyclotridecaphane-1^2-carboxylic acid 4,4-dioxide]?
A: IC50 [3]: 13 nM; IC50 ([1]; Homo sapiens, NCI-H929, 24 h): 411 nM; IC50 ([2]; Homo sapiens, OPM-2, 24 h): 1170 nM

Q: For `Cc1nc2oc1CSc1cc(c3ccccc3c1)OCCCc1c(C(=O)O)n(C)c3c(c(Cl)ccc13)-c1c(nn3c1CCC3)CSC2` [compound 10, 1^6-chloro-1^1,6^4-dimethyl-2^5,2^6-dihydro-1^1H,2^4H-10-oxa-4,8-dithia-6(2,5)-oxazola-1(7,3)-indola-2(3,2)-pyrrolo[1,2-naphthalenacyclotridecaphane-b]pyrazola-9(3,1)-1^2-carboxylic acid], which IC50 [3] is on record?
A: 10.5 nM

Q: What about the IC50 ([1]; Homo sapiens, NCI-H929, 24 h) of the same molecule?
A: 1970 nM

Q: What about the IC50 ([2]; Homo sapiens, OPM-2, 24 h) of the same molecule?
A: 8810 nM

Q: How did the IC50 [3] turn out when `Cn1nc2cc1CSc1cc(c3ccccc3c1)OCCCc1c(C(=O)O)n(C)c3c(c(Cl)ccc13)-c1c(nn3c1COCC3)CSC2` [compound 12, (Z)-1^6-chloro-1^1,6^1-dimethyl-2^6,2^7-dihydro-1^1H,2^4H,6^1H-10-oxa-4,8-dithia-2(3,2)-pyrazolo[5,1-c][1,4]oxazina-1(7,3)-indola-6(3,5)-pyrazola-9(3,1)-naphthalenacyclotridecaphane-1^2-carboxylic acid] was run?
A: 10.9 nM

Q: What about the IC50 ([1]; Homo sapiens, NCI-H929, 24 h) of the same molecule?
A: 81 nM

Q: What about the IC50 ([2]; Homo sapiens, OPM-2, 24 h) of the same molecule?
A: 532 nM

Q: For `Cn1nc2nc1CSc1cc(c3ccccc3c1)OCCCc1c(C(=O)O)n(C)c3c(c(Cl)ccc13)-c1c(nn3c1CCC3)CSC2` [compound 13, (Z)-1^6-chloro-1^1,6^1-dimethyl-2^5,2^6-dihydro-1^1H,2^4H,6^1H-10-oxa-4,8-dithia-1(7,3)-indola-2(3,2)-pyrrolo[1,2-b]pyrazola-6(3,5)-triazola-9(3,1)-naphthalenacyclotridecaphane-1^2-carboxylic acid], which IC50 [3] is on record?
A: 14.6 nM

Q: What about the IC50 ([1]; Homo sapiens, NCI-H929, 24 h) of the same molecule?
A: 4300 nM

Q: What about the IC50 ([2]; Homo sapiens, OPM-2, 24 h) of the same molecule?
A: > 10000 nM

Q: Which results are given for `Cn1nc2cc1CSc1cc(c3ccc(Cl)cc3c1)OCCCc1c(C(=O)O)n(C)c3c(c(Cl)ccc13)-c1c(nn3c1COCC3)CSC2` [compound 19, (Z)-1^6,9^6-dichloro-1^1,6^1-dimethyl-2^6,2^7-dihydro-1^1H,2^4H,6^1H-10-oxa-4,8-dithia-2(3,2)-pyrazolo[5,1-c][1,4]oxazina-1(7,3)-indola-6(3,5)-pyrazola-9(3,1)-naphthalenacyclotridecaphane-1^2-carboxylic acid]?
A: IC50 [3]: 16 nM; IC50 ([1]; Homo sapiens, NCI-H929, 24 h): 250 nM; IC50 ([2]; Homo sapiens, OPM-2, 24 h): 384 nM
